Substitutions are numbered along the chain they refer to.
B1: FL-LPL: HA-TAT fused full-length L-plastin protein (70-75 kDa), purified from bacterial expression vector pTAT-HA (protein, UniProt P13796 1-627, looked up)
chain: MARGSVSDEEMMELREAFAKVDTDGNGYISFNELNDLFKAACLPLPGYRVREITENLMATGDLDQDGRISFDEFIKIFHGLKSTDVAKTFRKAINKKEGICAIGGTSEQSSVGTQHSYSEEEKYAFVNWINKALENDPDCRHVIPMNPNTNDLFNAVGDGIVLCKMINLSVPDTIDERTINKKKLTPFTIQENLNLALNSASAIGCHVVNIGAEDLKEGKPYLVLGLLWQVIKIGLFADIELSRNEALIALLREGESLEDLMKLSPEELLLRWANYHLENAGCNKIGNFSTDIKDSKAYYHLLEQVAPKGDEEGVPAVVIDMSGLREKDDIQRAECMLQQAERLGCRQFVTATDVVRGNPKLNLAFIANLFNRYPALHKPENQDIDWGALEGETREERTFRNWMNSLGVNPRVNHLYSDLSDALVIFQLYEKIKVPVDWNRVNKPPYPKLGGNMKKLENCNYAVELGKNQAKFSLVGIGGQDLNEGNRTLTLALIWQLMRRYTLNILEEIGGGQKVNDDIIVNWVNETLREAKKSSSISSFKDPKISTSLPVLDLIDAIQPGSINYDLLKTENLNDDEKLNNAKYAISMARKIGARVYALPEDLVEVNPKMVMTVFACLMGKGMKRV
modifications: full-length HA-TAT tag
notes: HA-TAT fused full-length L-plastin protein (70-75 kDa), purified from bacterial expression vector pTAT-HA
B2: mutated FL-LPL: TAT-fused full-length L-plastin with Ser-5 and Ser-7 mutated to Ala-5 and Ala-7 (protein, UniProt P13796 1-627, looked up, variant S5A S7A)
chain: B1 chain with S5A, S7A
modifications: full-length HA-TAT tag

Key:
Format in all cases: cell-based, mouse
osteoclasts [1] = assay: Formation of nascent sealing zones (NSZs) in osteoclasts plated on dentine slices (actin staining); conditions: for formation of NSZs: sNT-LPL peptides, dentine; for formation of NSZs, time course: 3, 6 and 10 hours, LPL and integrin αv immunostaining; for number of NSZs: dentine slices 2-3 hours, versus basal level
Procedure: (§1) The vector pTAT-HA has an N-terminal 6-histidine leader (Nagahara et al., 1998, Nature Medicine, 4:1449-1452). […] For transduction with TAT-fused peptides (100-150 nM), osteoclasts were first kept in serum-free α-MEM for two hours. Afterward, TAT proteins of interest, bone particles, and TNF-α were added to cells in serum-free α-MEM Lysates were made from these cells for immunoprecipitation and immunoblotting analyses. Osteoclasts plated on dentine slices in the presence of TAT-proteins of interest and TNF-α for 3-6 hours or 12-14 hours were used for immunostaining or actin staining analyses. Osteoclast cultures treated only with TNF-α were used as controls.
(§2) Osteoclast precursors (10^5 cells/coverslips) were cultured on glass cover slips or dentine slices. Fluorescent labeling was done in osteoclasts transduced or untransduced with TAT-proteins. HA or TAT antibody was used to identify the transduced peptides of interest; rhodamine phalloidin was used to determine actin organization (Chellaiah et al., 2000, J. Cell Biol., 148: 665-678; Chellaiah et al., 2000, J. Biol. Chem., 275: 11993-12002). Immunostained and actin stained osteoclasts were photographed with a Bio-Rad confocal laser-scanning microscope. Images were stored in TIF image format and processed by Adobe Photoshop (Adobe Systems Inc., Mountain View. Calif.).
After cells were kept in the serum-free α-MEM medium for two hours, LPL peptides of interest were added to a final concentration of 100-150 nM to cells in serum-free media (Chellaiah et al, 2000, J. Biol. Chem., 275: 11993-12002). Osteoclasts transduced with peptides of interest and added with bone particles in the presence of TNF-α for 3-4 hours or 12-14 hours were used for lysate preparations. Cells plated on coverslips and treated with peptides were used for actin staining to detect podosomes. […] These cells were used for Actin staining with rhodamine-phalloidin or immunostaining analyses (Chellaiah et al., 2000, J. Biol. Chem., 275: 11993-12002; Chellaiah et al., 2000, J. Cell. Biol., 148: 665-678; Chellaiah et al., 2003, J Biol Chem 278: 29086-29097).
(§3) Osteoclasts were fixed with 3% paraformaldehyde for 20 minutes and permeabilized with 0.1% Triton X-100 in PBS for 5 minutes. Subsequently, osteoclasts were stained with a primary (HA or integrin αv) and secondary antibody as described (Chellaiah et al., 2003, J Biol Chem 278: 29086-29097). Actin staining was done with rhodamine-phalloidin as described (Chellaiah et al., 2000, J. Biol. Chem., 275: 11993-12002; Chellaiah et al., 2000, J. Cell Biol., 148: 665-678). Cells were washed and mounted on a slide in a mounting solution (Vector Laboratories) and sealed with nail polish. Immunostained osteoclasts were photographed with a Bio-Rad and Nikon confocal microscope. Images were stored in TIF image format and processed by Adobe Photoshop (Adobe Systems Inc., Mountain View, Calif.).

osteoclasts [2] = assay: Podosome organization in osteoclasts (actin staining); conditions: for formation of podosomes: sNT-LPL peptides; for actin modulation involved in podosome assembly/disassembly: TAT-fused LPL peptides
Procedure: as §2
(§4) After cells were kept in the serum-free α-MEM medium for two hours, LPL peptides of interest were added to a final concentration of 100-150 nM to cells in serum-free media (Chellaiah et al, 2000, J. Biol. Chem., 275: 11993-12002). Osteoclasts transduced with peptides of interest and added with bone particles in the presence of TNF-α for 3-4 hours or 12-14 hours were used for lysate preparations. Cells plated on coverslips and treated with peptides were used for actin staining to detect podosomes. After transduction for 30 min., osteoclasts were re-plated on dentine slices with respective LPL peptide and TNF-α for 3-6 hours or 12-14 hours. These cells were used for Actin staining with rhodamine-phalloidin or immunostaining analyses (Chellaiah et al., 2000, J. Biol. Chem., 275: 11993-12002; Chellaiah et al., 2000, J. Cell. Biol., 148: 665-678; Chellaiah et al., 2003, J Biol Chem 278: 29086-29097).
as §3

endogenous LPL = assay: Phosphorylation of endogenous (cellular) LPL in osteoclasts (LPL immunoprecipitation, p-Serine immunoblot); conditions: for inhibitory effect on the phosphorylation of cellular LPL: sNT-LPL peptides, 3-4 hours; for inhibitory effect on the phosphorylation of cellular LPL / phosphorylation of endogenous LPL: bone particles and TNF-α; for phosphorylation of endogenous LPL: TAT-fused LPL peptides 150 nM, 3 hours
Procedure: Bone particles (60-80 μm in size) were prepared as described previously (Ma et at, 2010, J. Biol. Chem., 285: 29911-29924). After flushing the marrow cells for osteoclast differentiation as described above, long bones of mice (free of cells inside and muscles outside) were washed extensively with PBS and kept in ethanol until use. Long bones were air-dried in the hood and homogenized by a mini blender. Bone particles were sieved and used for experiments. Multinucleated osteoclasts were seen from day four onward. At this time cultures were added with bone particles (100 μg/ml media) for 3-4 hours or 12-14 hours in the presence of TNF-α (20 ng/ml). Some cultures were treated with 3-5 μg/ml TNFR1 antibody. Osteoclasts were preincubated with the TNFR1 antibody for 60-90 minutes before the addition of TNF-α to enhance the blocking effect. Osteoclasts incubated with bone particles for 3-4 or 12-14 hours in the presence of TNF-α were used for lysate preparations.
as §1
Following various treatments, osteoclasts were washed three-times with cold PBS and lysed in a radioimmune precipitation buffer (RIPA; 10 mM Tris-HCl, pH 7.2, 150 mM NaCl, 1% deoxycholate, 1% Triton X-100, 0.1% SDS, 1% aprotinin, 2 mM PMSF, […], and 1% aprotinin). Cells were rocked on ice for 15 minutes and scraped off with a cell scraper. Cell lysates were centrifuged at 15,000 rpm for 5 minutes at 4° C., and the supernatant was saved. Protein contents were measured using Bio-Rad protein assay reagent. Equal amounts of lysate proteins (100-150 μg) were used for immunoprecipitations. Immunoprecipitations and Western blotting were done as described previously (Chellaiah et al., 1998, J. Biol. Chem., 273: 11908-11916; Chellaiah et al., 1996, Mol. Biol. Cell, 7: 743-753).
as §4
Following various treatments, osteoclasts were washed three times with cold PBS and lysed in a Triton-containing lysis buffer as described (Chellaiah et al., 1996, Mol. Biol. Cell, 7: 743-753). Cells were rocked on ice for 15 minutes, and scraped off with a cell scraper. Cell lysates were centrifuged at 15,000 rpm for 5 minutes, at 4° C., and the supernatant was saved. Protein contents were measured using Bio-Rad protein assay reagent. Osteoclast cultures were also subjected to a trypan blue dye (Sigma T8154) exclusion test to determine the viability of osteoclasts after various treatments. […]

osteoclasts [3] = assay: Sealing ring formation in osteoclasts plated on dentine; conditions: for formation of mature sealing rings: sNT-LPL peptides, time course to 10 hours; for number of sealing rings: dentine 10-12 hours, TNF-α
Procedure: as §1, §2, §4
Osteoclasts were fixed with 3% paraformaldehyde for 20 minutes and permeabilized with 0.1% Triton X-100 in PBS for 5 minutes. Subsequently, osteoclasts were stained with a primary (HA or integrin αv) and secondary antibody as described (Chellaiah et al., 2003, J Biol Chem 278: 29086-29097). Actin staining was done with rhodamine-phalloidin as described (Chellaiah et al., 2000, J. Biol. Chem., 275: 11993-12002; Chellaiah et al., 2000, J. Cell Biol., 148: 665-678). […]

Molecule | formation of NSZs (osteoclasts [1]) | formation of podosomes (osteoclasts [2]) | inhibitory effect on the phosphorylation of cellular LPL (endogenous LPL) | formation of NSZs, time course (osteoclasts [1]) | formation of mature sealing rings (osteoclasts [3]) | cellular levels of LPL (endogenous LPL; FIG. 8B and FIG. 13B (mouse and RAW-derived osteoclasts)) | number of NSZs (osteoclasts [1]; TNF-α) | number of sealing rings (osteoclasts [3]) | number of sealing rings (osteoclasts [3]; listed as PL-LPL) | actin modulation involved in podosome assembly/disassembly (osteoclasts [2]) | phosphorylation of endogenous LPL (endogenous LPL) | formation of NSZs, lower magnification (FIG. 7) (osteoclasts [1]; dentine slices 3-4 hours, TNF-α)
MARGAVADEE [Peptide P2, TAT-fused sNT-LPL peptide, Ser-5 and Ser-7 substituted to Alanine (A5A7)] | no inhibitory effect | Neither the migration (FIG. 12A-FIG. 12C) nor the formation the podosomes (FIG. 12D) was affected | No significant inhibitory effect | – | – | – | – | – | – | – | – | –
MARGSVSDEE [Peptide P1, TAT-fused small molecular weight (10aa) amino-terminal LPL peptide, unsubstituted (S5S7)] | considerable decrease | Neither the migration (FIG. 12A-FIG. 12C) nor the formation the podosomes (FIG. 12D) was affected | inhibition is significant | attenuates | abrogated | did not change | – | – | – | – | – | –
SRSGMVEEAD [Peptide P5, TAT-fused scrambled sNT-LPL peptide, control, reference compound] | no inhibitory effect | Neither the migration (FIG. 12A-FIG. 12C) nor the formation the podosomes (FIG. 12D) was affected | No significant inhibitory effect | time-dependent organization | time-dependent organization | – | – | – | – | – | – | –
B1 | – | – | – | – | – | – | substantial increase above the basal level | Multiple sealing rings | increased | does not affect | basal level phosphorylation | –
B2 | – | – | – | – | – | – | more or less equal | – | – | does not affect | basal level phosphorylation | did not affect

— patent US11485762B2, “Compositions and methods for inhibition of L-plastin activity in osteoclasts to reduce bone loss” (University of Maryland, Baltimore, priority 2017, dated 2022)
